Target: T1, A3R (Rattus norvegicus, UniProt P28647)
T1 construct: Adult male Sprague-Dawley rats; from tissue; host or cells: living Sprague-Dawley rats, brain volume of interest in PET
T1 sequence (P28647 1-320): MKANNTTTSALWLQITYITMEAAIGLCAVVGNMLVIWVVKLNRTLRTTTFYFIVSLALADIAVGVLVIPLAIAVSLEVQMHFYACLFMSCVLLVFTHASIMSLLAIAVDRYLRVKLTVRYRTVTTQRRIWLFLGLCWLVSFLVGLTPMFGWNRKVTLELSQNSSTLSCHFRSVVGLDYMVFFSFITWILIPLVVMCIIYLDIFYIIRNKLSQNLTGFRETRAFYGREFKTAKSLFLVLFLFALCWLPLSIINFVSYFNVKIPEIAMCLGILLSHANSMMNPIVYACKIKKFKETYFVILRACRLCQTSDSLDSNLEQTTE
Test: Small-animal PET in rats: baseline and A3R blocking scans
Type: in vivo
Details: baseline PET, 60 min
From the text: A microPET Focus220 scanner (Siemens, Medical Solutions) was used for the experiments. It has 168 detector modules providing a 7.6-cm axial and 22-cm transaxial field of view. The resolution of the reconstructed images (filtered back projection) was 1.3 mm (full-width at half-maximum) in the central field of view and remained under 2 mm within the central 5 cm diameter field of view. For PET imaging two groups of animals (rats and xenografted mice) were investigated. Rats were divided into four groups. The first group received vehicle (dimethyl sulphoxide, DMSO) intravenously via a lateral tail vein 30 min prior to radiotracer administration (three animals, 14.3 – 70.1 MBq, 0.2604 ± 0.06 μg). The second group received MRS1523 – a selective A3R antagonist – at a dose of 2 mg/kg body weight (dissolved in DMSO, 4 mg/mL) intravenously via a tail vein 30 min prior to radiotracer administration (three animals, 18.8 – 59.1 MBq, 0.3443 ± 0.05 μg). The third group received unlabelled title compound FE@SUPPY (dissolved in DMSO, 4 mg/mL) at a dose of 2 mg/kg 30 min before tracer administration (three animals, 9.7 – 16.1 MBq, 0.3926 ± 0.04 μg). In the final study group, the effect of P-glycoprotein inhibition was assessed by intravenous administration of 15 mg/kg TQD (freshly dissolved on each experimental day in 2.5 % aqueous dextrose solution and injected intravenously via a tail vein at a volume of 3 mL/kg over 1 min) 60 min prior to tracer administration (three animals, 13.9 – 26.8 MBq, 0.7451 ± 0.11 μg).
Anaesthetized animals were positioned in the imaging chamber of the microPET scanner, which was kept at 38 °C throughout the experiment. A stereotactic holder attached to the bed, consisting of ear plugs and a tooth bar, was used to fix the animal's head to ensure a reproducible position during the PET studies. [^18F]FE@SUPPY (27.91 ± 13.82 MBq) dissolved in 0.48 ± 0.22 mL phosphate-buffered saline (pH 7.4) was administered as a bolus via a tail vein. Dynamic PET imaging was performed over 60 min in all animals. At the end of the PET scan the animals were killed, a terminal blood sample was collected and whole brains were removed for testing of metabolite stability.
For all PET scans (rats and xenografted mice), list mode data were acquired with an energy window of 350 – 750 keV (rats) or 250 – 750 keV (mice) and a 6-ns timing window. Before each PET scan, a transmission scan using a ^57Co point source was recorded over 10 min. The PET data from the 60-min dynamic scans were sorted into three-dimensional sinograms according to the following frame sequence: 6 × 20 s, 5 × 60 s, 4 × 120 s, 3 × 300 s and 3 × 600 s. For the 90-min scans (in the xenografted mice) the following frame sequence was used: 8 × 5 s, 2 × 10 s, 2 × 30 s, 3 × 60 s, 2 × 150 s, 2 × 300 s, 4 × 600 s and 2 × 900 s. PET images were reconstructed by Fourier rebinning followed by filtered back projection with a ramp filter. The resulting voxel size was 0.6 × 0.6 × 0.8 mm for rats or 0.4 × 0.4 × 0.8 mm for mice. The standard data correction protocol (normalization, attenuation and decay correction) was applied to the data. A calibration factor for converting units of microPET images into absolute radioactivity concentration units was first generated by imaging a phantom filled with a known concentration of [^18F]FDG.
Rat brains were manually outlined on multiple planes of the PET summation images using the image analysis software PMOD 3.1 (Pmod Ltd, Zürich, Switzerland) or Amide. Volumes of interest in the brain or solid tissue mass (xenografts) were transferred to the PET images of the individual time frames and time–activity curves (TACs) expressed in units of kilobecquerels per millilitre were calculated. To facilitate comparison of TACs of different animals, radioactivity concentrations were normalized to dose and weight and expressed as standardized uptake value (SUV, %ID/cm^3 or %ID/g). […]

## CCSC(=O)c1c(CC)nc(-c2ccccc2)c(C(=O)OCC[18F])c1CC [[^18F]FE@SUPPY, 5-(2-[^18F]fluoroethyl)-2,4-diethyl-3-(ethylsulfanylcarbonyl)-6-phenylpyridine-5-carboxylate]
  tracer uptake in fat-rich regions (harderian and lacrimal glands): high uptake
  tracer uptake in the brain: low uptake
